System: G-401 tumor spheroids, viability % test/control
Test: Anticancer human tumor G-401 cell line growth inhibition;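 further: spheroids exposed to compound for 7 days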;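 on viability, T/C: 100% = DMSO vehicle-treated spheroids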
Settings: spheroids with HUVEC and MSC; for IC50: curve of first compound; for viability, T/C: stronger effect = lower value
Source text: Multicellular complex tumor spheroid response to DNA repair inhibitors in combination with DNA-damaging drugs
This study explores the anticancer activities of DNA-damaging drugs and inhibitors of DNA damage repair, both as single agents and in combinations. Complex tumor spheroids comprised of malignant cells, endothelial cells and mesenchymal stem cells served as an in vitro model for human solid tumors. This model system incorporates physiologically relevant features and patient-derived or established malignant cell lines with clinically relevant genetic alterations from many tumor types. Twenty-six patient-derived or established malignant cell lines were evaluated representing sarcoma, melanoma, small cell lung cancer (SCLC), non-small cell lung cancer (NSCLC), as well as bladder, ovarian and pancreatic cancers. The concentration ranges selected for each drug and investigational agent were based upon clinically achievable concentrations if the clinical Cmax of the agent was known.
Compounds. The drugs and compounds olaparib (NSC753686), talazoparib (NSC767125), berzosertib (NSC777718), elimusertib (NSC800525), nedisertib (NSC802822), VX-984 (NSC792969), AZD-1390 (NSC803789), temozolomide (NSC362856), topotecan (NSC609699), trabectedin (NSC813783), staurosporine (NSC755774), and gemcitabine (NSC613327) were obtained from the National Cancer Institute (NCI) Developmental Therapeutics Program Chemical Repository. The FDA-approved anticancer drug set is available from the Developmental Therapeutics Program at https://dtp.cancer.gov/organization/dscb/obtaining/available_plates.htm. […] The stock solutions were prepared in dimethyl sulfoxide (DMSO, Sigma-Aldrich, St. Louis, MO, cat. D2650) at 400-fold the tested concentration and stored at -70 degrees C. Prior to their use, the stock solutions were diluted in fresh medium and the final DMSO concentration in the assay was 0.25% (v/v). All drugs and investigational agents were tested over a range starting from a high concentration at or near the clinical Cmax and decreasing in half-log increments. If the clinical Cmax for an agent had not been determined, the highest concentration tested was 10 microM.
Cell Lines. The patient-derived cancer cell (PDC) lines: 156681-154-R-J1-PDC, 283228-195-R-J1-PDC, 287954-098-R-J1-PDC, 292921-168-R-J2-PDC, 349418-098-R-PDC, 425362-245-T-J1-PDC, 556581-035-R-J1-PDC, and BL0293-F563-PDC were received from the NCI Patient-Derived Models Repository (PDMR, https://pdmr.cancer.gov). The established cell lines HS-SY-2 (RRID:CVCL_8719), MPNST, and SYO-1 (RRID:CVCL_7146) were obtained from the Sloan Kettering Institute. The alveolar soft parts sarcoma cell line ASPS-1 (RRID:CVCL_S738) was established at the NCI and grown from internal seed stocks. The following established cell lines were purchased from the American Type Culture Collection (ATCC, Manassas, VA): G-401 (ATCC, cat. CRL-1441, RRID:CVCL_0270), SW982 (ATCC, cat. HTB-93, RRID:CVCL_1734), VA-ES-BJ (ATCC, cat. CRL-2138, RRID:CVCL_1785), NCI-H719 (ATCC, cat. CRL-5837, RRID:CVCL_1582), NCI-H196 (ATCC, cat. CRL-5823, RRID:CVCL_1509), NCI-H841 (ATCC, cat. CRL-5845, RRID:CVCL_1595), NCI-H1618 (ATCC, cat. CRL-5879, RRID:CVCL_1480), NCI-H1876 (ATCC, cat. CRL-5902, RRID:CVCL_1503), DMS 114 (ATCC, cat. CRL-2066; RRID:CVCL_1174), NCI-H211 (ATCC, cat. CRL-5824; RRID:CVCL_1529), and SW 1271 (ATCC, cat. CRL-2177, RRID:CVCL_1716). The small cell lung cancer cell line COR-L88 was purchased from Sigma-Aldrich (cat. 92031917-1VL, RRID:CVCL_1141). The non-small cell lung cancer cell lines NCI-H226 (RRID:CVCL_1544) and NCI-H322M (RRID:CVCL_1557) were established at the NCI and grown from internal seed stocks. Pooled donor human umbilical vein endothelial cells (HUVEC, Lonza, cat. CC-2519) and human mesenchymal stem cells (hMSC, Lonza, cat. PT-2501) were purchased from Lonza (Walkersville, MD).
Cell Culture. All cells were maintained in an incubator at 37 degrees C and 5% CO2 with 95% humidity. […]

[1] = second compound 0.003 µM, first compound 0.0949 µM
[2] = second compound 0.003 µM, first compound 0.3 µM
[3] = second compound 0.003 µM, first compound 0.949 µM
[4] = second compound 0.003 µM, first compound 3 µM
[5] = second compound 0.00949 µM, first compound 0.0949 µM
[6] = second compound 0.00949 µM, first compound 0.3 µM
[7] = second compound 0.00949 µM, first compound 0.949 µM
[8] = second compound 0.00949 µM, first compound 3 µM
[9] = second compound 0.03 µM, first compound 0.0949 µM
[10] = second compound 0.03 µM, first compound 0.3 µM
[11] = second compound 0.03 µM, first compound 0.949 µM
[12] = second compound 0.03 µM, first compound 3 µM
[13] = second compound 0.0949 µM, first compound 0.0949 µM
[14] = second compound 0.0949 µM, first compound 0.3 µM
[15] = second compound 0.0949 µM, first compound 0.949 µM
[16] = second compound 0.0949 µM, first compound 3 µM
[17] = second compound 0.3 µM, first compound 0.0949 µM
[18] = second compound 0.3 µM, first compound 0.3 µM
[19] = second compound 0.3 µM, first compound 0.949 µM
[20] = second compound 0.3 µM, first compound 3 µM

| Structure (SMILES) | IC50 (second compound 0.003 µM) [nM] | IC50 (second compound 0.00949 µM) [nM] | IC50 (second compound 0.03 µM) [nM] | IC50 (second compound 0.0949 µM) [nM] | IC50 (second compound 0.3 µM) [nM] | viability, T/C [1] [%] | viability, T/C [2] [%] | viability, T/C [3] [%] | viability, T/C [4] [%] | viability, T/C [5] [%] | viability, T/C [6] [%] | viability, T/C [7] [%] | viability, T/C [8] [%] | viability, T/C [9] [%] | viability, T/C [10] [%] | viability, T/C [11] [%] | viability, T/C [12] [%] | viability, T/C [13] [%] | viability, T/C [14] [%] | viability, T/C [15] [%] | also measured |
| --- | --- | --- | --- | --- | --- | --- | --- | --- | --- | --- | --- | --- | --- | --- | --- | --- | --- | --- | --- | --- | --- |
| Cn1ncnc1[C@H]1c2n[nH]c(=O)c3cc(F)cc(c23)N[C@@H]1c1ccc(F)cc1 + CC[C@@]1(O)C(=O)OCc2c1cc1n(c2=O)Cc2cc3c(CN(C)C)c(O)ccc3nc2-1 | < 9.49 | < 9.49 | < 9.49 | < 9.49 | < 9.49 | 22.9 | 14.9 | 13.6 | 8.75 | 11.5 | 10.4 | 8.82 | 7.7 | 6.78 | 6.5 | 6.42 | 5.33 | 6.01 | 5.6 | 5.23 | viability, T/C (second compound 0.003 µM, first compound 0.00949 µM): 30.3%; viability, T/C (second compound 0.003 µM, first compound 0.03 µM): 25.3%; viability, T/C (second compound 0.00949 µM, first compound 0.00949 µM): 14.6%; viability, T/C (second compound 0.00949 µM, first compound 0.03 µM): 14.9%; viability, T/C (second compound 0.03 µM, first compound 0.00949 µM): 8.82%; viability, T/C (second compound 0.03 µM, first compound 0.03 µM): 7.7%; viability, T/C (second compound 0.0949 µM, first compound 0.00949 µM): 6.07%; viability, T/C (second compound 0.0949 µM, first compound 0.03 µM): 5.84%; viability, T/C [16]: 3.98%; viability, T/C (second compound 0.3 µM, first compound 0.00949 µM): 4.4%; viability, T/C (second compound 0.3 µM, first compound 0.03 µM): 4.94%; viability, T/C [17]: 4.58%; viability, T/C [18]: 4.17%; viability, T/C [19]: 3.92%; viability, T/C [20]: 2.85% |
| O=C(c1cc(Cc2n[nH]c(=O)c3ccccc23)ccc1F)N1CCN(C(=O)C2CC2)CC1 + CC[C@@]1(O)C(=O)OCc2c1cc1n(c2=O)Cc2cc3c(CN(C)C)c(O)ccc3nc2-1 | 991 | < 94.9 | < 94.9 | < 94.9 | < 94.9 | 49.4 | 51.8 | 52.1 | 43.9 | 18.2 | 19.1 | 24 | 18.4 | 9.43 | 10.1 | 10.1 | 9.87 | 7.02 | 6.74 | 7.7 | viability, T/C (second compound 0.003 µM, first compound 9.49 µM): 28.3%; viability, T/C (second compound 0.003 µM, first compound 30 µM): 13.6%; viability, T/C (second compound 0.00949 µM, first compound 9.49 µM): 17.2%; viability, T/C (second compound 0.00949 µM, first compound 30 µM): 12.4%; viability, T/C (second compound 0.03 µM, first compound 9.49 µM): 9.41%; viability, T/C (second compound 0.03 µM, first compound 30 µM): 9.05%; viability, T/C [16]: 7.1%; viability, T/C (second compound 0.0949 µM, first compound 9.49 µM): 6.71%; viability, T/C (second compound 0.0949 µM, first compound 30 µM): 7.06%; viability, T/C [17]: 4.94%; viability, T/C [18]: 5.39%; viability, T/C [19]: 5.37%; viability, T/C [20]: 6.35%; viability, T/C (second compound 0.3 µM, first compound 9.49 µM): 5.22%; viability, T/C (second compound 0.3 µM, first compound 30 µM): 6.07% |

Source: PubChem BioAssay AID1845203 (Molecular Pharmacology Branch, DTP, NCI, 2023)
